Measured values published in PubChem BioAssay (NCI).
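Compound exposure: 48 hours, 5 concentrations, 96-well plates. GI50 marks 50% less growth. TGI denotes the concentration required for complete inhibition of growth.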

Assays:
Assay in all cases: NCI anticancer screen, dose series, 48 h
786-0 renal = tested on: 786-0 renal
A498 renal = tested on: A498 renal
A549 NSCLC = tested on: A549 NSCLC
ACHN renal = tested on: ACHN renal
BT-549 breast = tested on: BT-549 breast
CAKI-1 renal = tested on: CAKI-1 renal
CCRF-CEM leukemia = tested on: CCRF-CEM leukemia
DU-145 prostate = tested on: DU-145 prostate
HCC-2998 colon = tested on: HCC-2998 colon
HCT-116 colon = tested on: HCT-116 colon
HCT-15 colon = tested on: HCT-15 colon
HL-60(TB) leukemia = tested on: HL-60(TB) leukemia
HOP-62 NSCLC = tested on: HOP-62 NSCLC
HOP-92 NSCLC = tested on: HOP-92 NSCLC
HS 578T breast = tested on: HS 578T breast
IGROV1 ovarian = tested on: IGROV1 ovarian
KM12 colon = tested on: KM12 colon
LOX IMVI melanoma = tested on: LOX IMVI melanoma
M14 melanoma = tested on: M14 melanoma
MCF7 breast = tested on: MCF7 breast
MDA-MB-231 breast = tested on: MDA-MB-231 breast
MDA-MB-435 = tested on: MDA-MB-435
MOLT-4 leukemia = tested on: MOLT-4 leukemia
NCI-H226 lung = tested on: NCI-H226 lung
NCI-H23 lung = tested on: NCI-H23 lung
NCI-H460 lung = tested on: NCI-H460 lung
NCI-H522 lung = tested on: NCI-H522 lung
NCI/ADR-RES ovarian = tested on: NCI/ADR-RES ovarian
OVCAR-3 ovarian = tested on: OVCAR-3 ovarian
OVCAR-5 ovarian = tested on: OVCAR-5 ovarian
OVCAR-8 ovarian = tested on: OVCAR-8 ovarian
PC-3 prostate = tested on: PC-3 prostate
RPMI-8226 leukemia = tested on: RPMI-8226 leukemia
RXF 393 renal = tested on: RXF 393 renal
SF-268 CNS = tested on: SF-268 CNS
SF-295 CNS = tested on: SF-295 CNS
SF-539 CNS = tested on: SF-539 CNS
SK-MEL-2 melanoma = tested on: SK-MEL-2 melanoma
SK-MEL-28 melanoma = tested on: SK-MEL-28 melanoma
SK-MEL-5 melanoma = tested on: SK-MEL-5 melanoma
SK-OV-3 ovarian = tested on: SK-OV-3 ovarian
SN12C renal = tested on: SN12C renal
SNB-19 CNS = tested on: SNB-19 CNS
SNB-75 CNS = tested on: SNB-75 CNS
SR leukemia = tested on: SR leukemia
SW-620 colon = tested on: SW-620 colon
T-47D breast = tested on: T-47D breast
TK-10 renal = tested on: TK-10 renal
U251 CNS = tested on: U251 CNS
UACC-257 melanoma = tested on: UACC-257 melanoma
UACC-62 melanoma = tested on: UACC-62 melanoma
UO-31 renal = tested on: UO-31 renal

For Nc1c(C(=O)Nc2ccccc2)sc2nc3c(cc12)CCCCC3, the GI50 (786-0 renal) was 465 nM, the TGI (786-0 renal) was 11800 nM and the GI50 (A498 renal) was 307 nM. For the same molecule, the TGI (A498 renal) was 4740 nM, the GI50 (A549 NSCLC) was 696 nM and the TGI (A549 NSCLC) was > 100000 nM. For the same molecule, the GI50 (ACHN renal) was 998 nM, the TGI (ACHN renal) was > 100000 nM and the GI50 (BT-549 breast) was 819 nM. The TGI (BT-549 breast) was 20100 nM, the GI50 (CAKI-1 renal) was 478 nM and the TGI (CAKI-1 renal) was > 100000 nM. For the same molecule, the GI50 (CCRF-CEM leukemia) was 410 nM, the TGI (CCRF-CEM leukemia) was > 100000 nM and the GI50 (DU-145 prostate) was 619 nM. For the same molecule, the TGI (DU-145 prostate) was 31400 nM, the GI50 (HCC-2998 colon) was 1010 nM and the TGI (HCC-2998 colon) was > 100000 nM. For the same molecule, the GI50 (HCT-116 colon) was 460 nM, the TGI (HCT-116 colon) was > 100000 nM and the GI50 (HCT-15 colon) was 421 nM. For the same molecule, the TGI (HCT-15 colon) was > 100000 nM, the GI50 (HL-60(TB) leukemia) was 319 nM and the TGI (HL-60(TB) leukemia) was 1850 nM. The GI50 (HOP-62 NSCLC) was 880 nM, the TGI (HOP-62 NSCLC) was 13900 nM and the GI50 (HOP-92 NSCLC) was 910 nM. For the same molecule, the TGI (HOP-92 NSCLC) was 18000 nM, the GI50 (HS 578T breast) was 669 nM and the TGI (HS 578T breast) was 31300 nM. For the same molecule, the GI50 (IGROV1 ovarian) was 6080 nM, the TGI (IGROV1 ovarian) was > 100000 nM and the GI50 (KM12 colon) was 520 nM. The TGI (KM12 colon) was > 100000 nM, the GI50 (LOX IMVI melanoma) was 907 nM and the TGI (LOX IMVI melanoma) was > 100000 nM. It also gave a GI50 (M14 melanoma) of 278 nM, a TGI (M14 melanoma) of 945 nM and a GI50 (MCF7 breast) of 332 nM. The TGI (MCF7 breast) was > 100000 nM, the GI50 (MDA-MB-231 breast) was 1620 nM and the TGI (MDA-MB-231 breast) was 42000 nM. It also gave a GI50 (MDA-MB-435) of 205 nM, a TGI (MDA-MB-435) of 522 nM and a GI50 (MOLT-4 leukemia) of 2670 nM. For the same molecule, the TGI (MOLT-4 leukemia) was > 100000 nM, the GI50 (NCI-H226 lung) was 1490 nM and the TGI (NCI-H226 lung) was 24700 nM. For the same molecule, the GI50 (NCI-H23 lung) was 874 nM, the TGI (NCI-H23 lung) was 97300 nM and the GI50 (NCI-H460 lung) was 460 nM. The TGI (NCI-H460 lung) was > 100000 nM, the GI50 (NCI-H522 lung) was 4900 nM and the TGI (NCI-H522 lung) was > 100000 nM. For the same molecule, the GI50 (NCI/ADR-RES ovarian) was 507 nM, the TGI (NCI/ADR-RES ovarian) was > 100000 nM and the GI50 (OVCAR-3 ovarian) was 415 nM. For the same molecule, the TGI (OVCAR-3 ovarian) was 2070 nM, the GI50 (OVCAR-5 ovarian) was 1060 nM and the TGI (OVCAR-5 ovarian) was > 100000 nM. For the same molecule, the GI50 (OVCAR-8 ovarian) was 1510 nM, the TGI (OVCAR-8 ovarian) was > 100000 nM and the GI50 (PC-3 prostate) was 547 nM. The TGI (PC-3 prostate) was > 100000 nM, the GI50 (RPMI-8226 leukemia) was 372 nM and the TGI (RPMI-8226 leukemia) was 14300 nM. For the same molecule, the GI50 (RXF 393 renal) was 321 nM, the TGI (RXF 393 renal) was 1220 nM and the GI50 (SF-268 CNS) was 1100 nM. The TGI (SF-268 CNS) was 54400 nM, the GI50 (SF-295 CNS) was 366 nM and the TGI (SF-295 CNS) was 4040 nM. The GI50 (SF-539 CNS) was 307 nM, the TGI (SF-539 CNS) was 12000 nM and the GI50 (SK-MEL-2 melanoma) was 1720 nM. For the same molecule, the TGI (SK-MEL-2 melanoma) was 20400 nM, the GI50 (SK-MEL-28 melanoma) was 812 nM and the TGI (SK-MEL-28 melanoma) was > 100000 nM. For the same molecule, the GI50 (SK-MEL-5 melanoma) was 353 nM, the TGI (SK-MEL-5 melanoma) was 5200 nM and the GI50 (SK-OV-3 ovarian) was 633 nM. The TGI (SK-OV-3 ovarian) was 10800 nM, the GI50 (SN12C renal) was 1880 nM and the TGI (SN12C renal) was > 100000 nM. For the same molecule, the GI50 (SNB-19 CNS) was 643 nM, the TGI (SNB-19 CNS) was > 100000 nM and the GI50 (SNB-75 CNS) was 378 nM. It also gave a TGI (SNB-75 CNS) of 2910 nM, a GI50 (SR leukemia) of 337 nM and a TGI (SR leukemia) of 15200 nM. The GI50 (SW-620 colon) was 443 nM, the TGI (SW-620 colon) was > 100000 nM and the GI50 (T-47D breast) was 834 nM. The TGI (T-47D breast) was 80600 nM, the GI50 (TK-10 renal) was 2390 nM and the TGI (TK-10 renal) was 30300 nM. For the same molecule, the GI50 (U251 CNS) was 767 nM, the TGI (U251 CNS) was 19500 nM and the GI50 (UACC-257 melanoma) was 1460 nM. The TGI (UACC-257 melanoma) was > 100000 nM, the GI50 (UACC-62 melanoma) was 410 nM and the TGI (UACC-62 melanoma) was 19400 nM. For the same molecule, the GI50 (UO-31 renal) was 917 nM and the TGI (UO-31 renal) was > 100000 nM.
